Data taken from patent US7259140B2, “Heparin-binding peptides and uses thereof” (Thomas Jefferson University, priority 2003, dated 2007).
Entries after “also recorded” stand apart in the source; their conditions may differ. Values belong to the substance of their own block, whether it stands above or below them. Ends that are not written are not given here.

Legend:
[1] = Affinity coelectrophoresis (ACE) of peptide binding to radiolabeled low Mr heparin; parameters: species or system pig
Excerpt: Preparation of Radiolabeled Heparin. Whole heparin from pig intestinal mucosa (Sigma) was tyramine end-labeled and radiolabeled with Na^125I (Amersham, Pharmacia Biotech, Inc., Piscataway, N.J.) to an average specific activity≅1.0×10^7 CPM/μg as described (San Antonio, J. D., et al., Biochemistry, 32:4746-4755, 1993). Radiolabeled heparin was fractionated on Sephadex G-100 (Bio-Rad Laboratories, Hercules, Calif.) and the final≅12% of material to elute was retained as the low Mr material of ≦6,000 (Jordan, R., D. Beeler, and R. Rosenberg, J. Biol. Chem., 254:2902-2913, 1979; Laurent, T. C., et al., Biochem. J., 175:691-701, 1978).
Analysis of Peptide-Heparin Interactions by Affinity Coelectrophoresis (ACE). ACE was used to study interactions between peptides and low molecular weight (low Mr) heparin (WO00/45831). In ACE, trace concentrations of radiolabeled heparin are electrophoresed through agarose lanes containing peptides at various concentrations. These analyses are used to determine the dissociation constants (Kd's). The electrophoretic patterns of radiolabeled heparin are then visualized using a phosphorimager, and the dissociation constant (Kd) corresponds to the protein concentration at which the heparin is half shifted from being fully mobile at very low protein concentrations to maximally retarded at saturating protein concentrations. The lower the Kd value, the higher the affinity.
Binding of radiolabeled heparin to peptides was studied by ACE as detailed elsewhere (San Antonio, J. D., et al., Biochemistry, 32:4746-4755, 1993). […] Briefly, peptides were dissolved in 1×ACE running buffer, 50 mM sodium 3-(N-morpholino)-2-hydroxypropanesulfonate (MOPSO, Sigma)/125 mM sodium acetate, pH 7.0, and serially diluted in running buffer at 2× concentrations. Peptides were then mixed 1:1 with 2% agarose/1% CHAPS, 3-[(3-cholamidopropyl)dimethylammonio]-1-propanesulfonate, (Boehringer Mannheim, Indianapolis, Ind.), and loaded into wells of a 1% agarose gel. Radiolabeled heparin was then loaded in a slot on the anode side of the gel, and electrophoresed through the peptide-containing wells, towards the cathode. Gels were dried and PG mobility was measured with a Phosphorimager (Molecular Dynamics, Sunnyvale, Calif.) by scanning each protein lane and determining the relative radioactivity content per 88-μm pixel through the length of the lane. Retardation coefficient (R) measurements, binding isotherm curve fittings, and apparent Kd value determinations were calculated as detailed previously (Lee, M. K., and A. D. Lander, Proc. Natl. Acad. Sci. USA, 88:2768-2772, 1991; San Antonio, J. D., et al, Biochemistry, 32:4746-4755, 1993).
Retardation coefficients (R) for the migration of low Mr 1^25I-tyramine-heparin through peptides were determined from ACE gel electrophoretograms, and are plotted against peptide concentration. Smooth curves represent non-linear least-squares fits to the equation R=R∞/{1+(Kd/[peptide])^n}.

[2] = Hemodynamic effects in rats without prior Lovenox; settings: no Lovenox
Description: Rats were sedated, and catheters were inserted into the femoral vein and femoral artery. The femoral artery catheter was hooked up to the computerized monitoring system, and injections were made through the femoral vein. Peptides were injected into rats without prior injection of Lovenox. Two or more rats (300-350 grams) were treated with 2 mg protamine or peptide.
At the times indicated in the figures, the following actions were taken: administration of saline to insure that the animal and intubations were stable; administration of test peptide or protamine alone; then administration of protamine.

platelets = test: Platelet aggregation with aggregation-inducing agents; format: cell-based, human; settings: 12 μg/ml; Lovenox 0.5 U/ml; collagen, ADP, ristocetin, epinephrine, SFFLRN, A23187
Description: Plasma from six volunteers was tested with various aggregation inducing agents, at several concentrations of each agent, and with six different peptides of the invention. The effect of heparin-binding peptides of the invention on platelet aggregation was determined using standard procedures as previously described. The six peptides which were synthesized and tested were: (ARKKAAKA)4 (SEQ ID NO:31), ARKKAAKA(A16)ARKKAAKA (SEQ ID NO:30), (ARKKAAKA)3ARKKCAKA (SEQ ID NO:33), (ARKKAAKA)3VLVLVLVL (SEQ ID NO:5), C(ARKKAAKA)4C (SEQ ID NO:34), and (AKKARA)6 (SEQ ID NO:32).
The aggregation-inducing agents tested were: collagen, adenosine diphosphate (ADP), ristocetin, epinephrine, the thrombin receptor peptide SFFLRN, and calcium ionophore A23187. Platelets were subjected to protamine, or to SEQ ID NOS:31, 33, 30, 5, 34, or 32 at 12 μg/ml, and Lovenox® at 0.5 U/ml. Platelet aggregation in response to agonists was monitored and percent aggregation was determined over a five minute interval.
The agonist was added after equilibration of the platelets for one minute.

[3] = system: anti-Factor Xa Activity of the Low Molecular Weight Heparin Lovenox ®; test: Anti-Factor Xa assay (Stachrom Heparin kit): neutralization of Lovenox in citrate or plasma in vitro; format: biochemical, human; settings: in both citrate and plasma
Description: (§1) The ability of peptides such as (ARKKAAKA)3VLVLVLVL (SEQ ID NO:5) to neutralize the anti-Factor Xa activity of UFH and LMWH in vitro was tested using the Stachrom Heparin kit (Diagnostica Stago), a standard hematology laboratory assay used to measure the anti-Factor Xa activity of heparin. The assay was performed using the low molecular weight heparin enoxaparin sodium (Lovenox®, Aventis Pharmaceuticals, Inc.), unfractionated heparin (UFH), or the non-heparin glycosaminoglycan danaparoid sodium (Orgaran®, Organon Inc., West Orange, N.J.) in 0.32% citrate or in plasma anticoagulated with 0.32% citrate. Enoxaparin is commonly used clinically as a low molecular weight heparin (LMWH). Danaparoid is commonly used clinically as a non-heparin glycosaminoglycan anticoagulant. Currently, the only FDA approved drug to target UFH is protamine, which is not effective in vivo against LMWH or a non-heparin glycosaminoglycan such as danaparoid. Buffer and ATIII are added to form the heparin/ATIII complex, peptide is added, then Factor Xa, reporter dye substrate for Factor Xa activity, and stop solution, and the dye concentration is read at 405 nm. The absorbance of the dye increases with increasing Factor Xa activity, and thus is inversely proportional to the heparin (anti-Factor Xa activity) concentration. Peptides were tested in plasma obtained from three volunteers (A, B, and C). Platelet function inhibitors PG12 and theophylline were added to the blood immediately upon collection.
Results. […] (ARKKAAKA)3VLVLVLVL (SEQ ID NO:5) and VLVL(ARKKAAKA)3ARKKCAKA (SEQ ID NO:38) were able to neutralize about 0.4 U/ml anti-Factor Xa activity of LMWH at a concentration of 12 μg/ml, which would be an effective dose for patients. (AKKARA)6 (SEQ ID […]), (ARKKAAKA)4 (SEQ ID NO:31) and (ARKKAAKA)3ARKKCAKA […] 0.3-0.35 U/ml. In contrast, 12 μg protamine only neutralized about 0.25 U/ml of LMWH under these conditions.

[4] = system: anti-Factor Xa Activity of Unfractionated Heparin; test: Anti-Factor Xa assay: neutralization of unfractionated heparin in citrate or plasma in vitro; format: biochemical, human; settings: in both citrate and plasma
Description: as §1, with “collection. […]” for “collection.”

[5] = Hemodynamic effects in rats after administration of the LMWH Lovenox; settings: in the presence of LMWH Lovenox
Description: Next, experiments were performed in which the animals were treated with the peptides after the administration of the LMWH Lovenox®, as would happen in the clinical situation, because binding of peptides to LMWH would be expected to reduce the effects of the peptides on hemodynamic function.

[6] = system: Lovenox ® Activity in Blood from Patients Treated with Lovenox ®; test: Neutralizing Lovenox activity in blood from patients treated with Lovenox (anti-Factor Xa assay); format: biochemical, human; settings: Peptide 12 μg/ml
Description: Blood was obtained from volunteers who were being treated with Lovenox® for their medical conditions after obtaining signatures on informed consent forms as approved by the Institutional Review Board. The assays to test neutralization of Lovendx® were performed as described for Table 2. A dose response from 1-60 μg/ml was evaluated as in Table 2.
The dose response pattern for the effective peptides was similar to the dose response in control plasma to which Lovenox® had been added. Each data point represents the mean and standard deviation of triplicate analyses on the same sample of blood from each patient.

affinity for low molecular weight heparin [1]: negligible affinity
Substance: ARKKAAKA (Fragment) [monomer, control peptide, reference compound]
effect in the anti-Factor Xa assay for Lovenox [3]: no effect
effect in the anti-Factor Xa assay for UFH [4]: no effect

Kd ([1]; pH 7.0, mean and standard deviation of four assays, read-out: Kd (nM), affinity for low molecular weight heparin): 5220 ± 1550 nM
Substance: VLVLARKKAAKAPARKKAAKAVLVL
Lovenox ® Neutralized ([6]; blood of Lovenox-treated Patient Number 1): 0.027 U/ml
Lovenox ® Neutralized ([6]; blood of Lovenox-treated Patient Number 2): 0.012 U/ml
Lovenox ® Neutralized ([6]; blood of Lovenox-treated Patient Number 3): 0.021 U/ml
Lovenox ® Neutralized ([6]; blood of Lovenox-treated Patient Number 4): 0.022 U/ml
Lovenox ® Neutralized ([6]; blood of Lovenox-treated Patient Number 5): 0 U/ml
Lovenox ® Neutralized ([6]; blood of Lovenox-treated Patient Number 8): 0.018 U/ml
Lovenox ® Neutralized ([6]; blood of Lovenox-treated Patient Number 9): 0.007 U/ml
Lovenox ® Neutralized ([6]; blood of Lovenox-treated Patient Number 10): 0.025 U/ml
Lovenox ® Neutralized ([6]; blood of Lovenox-treated Patient Number 11): 0.050 U/ml

The remaining lines, values behind:

Substance: (ARKKAAKA)4VLVLVLVL (ARKKAAKAARKKAAKAARKKAAKAARKKAAKAVLVLVLVL; Fragment) [SEQ ID NO:1]
affinity for low molecular weight heparin [1]: high affinity

Substance: AKKARAAKKARAAKKARAAKKARAAKKARAAKKARA [(AKKARA)6]
reduction/drop of blood pressure ([2]; 2 mg per rat (300-350 grams)): about 30 mm Hg
time to nadir of blood pressure ([2]; 2 mg per rat): 2 min
effect on platelet aggregation (platelets): no significant inhibition or enhancement of aggregation

Substance: ARKKAAKAARKKAAKAARKKAAKAARKKCAKA [(ARKKAAKA)3ARKKCAKA, (ARKKAAKA)3(ARKKCAKA)]
effect on blood pressure and heart rate / toxicity [5]: no significant effect on blood pressure and heart rate; also recorded: All rats tested showed no response to peptide
effect on blood pressure ([2]; 2 mg per rat): did not cause a change in blood pressure
effect on platelet aggregation (platelets): no significant inhibition or enhancement of aggregation
